Key:
recombinant human SK1 = target: T1, recombinant human SK1 (Homo sapiens, UniProt Q9NYA1); assay: SK activity assay, recombinant human SK1 (ADP-Quest; HPLC assay for SKI-II); format: biochemical; settings: for IC50: sphingosine 10 µM, read-out: IC50 for inhibition of SK1; for IC50 / Ki: ADP-Quest (SKI-II: HPLC assay); for Ki: recombinant human SK1, mean ± SEM of three independent experiments; for mode of inhibition of SK1: substrate competition, Lineweaver-Burk plots
T1 construct: purchased BPS Biosciences
Procedure: (§3) The enzymatic activities of recombinant human SK1 or SK2 (purity ≥74% by coomassie staining for each isozyme, BPS Biosciences) were measured using the ADP-Quest kinase assay kit (DiscoveRX Corporation, Fremont, CA) as previously described [34]. […] The reactions were maintained in initial velocity conditions (<5% of the substrate consumed), and data was fitted to the Michaelis–Menten equation by nonlinear regression (Prism 5 for Windows, GraphPad Software). […] For substrate competition analyses, a series of sphingosine concentrations were used and Lineweaver–Burk plots were constructed to define the mode of inhibition.

recombinant human SK2 = target: T2, recombinant human SK2 (Homo sapiens, UniProt Q9NRA0); assay: SK activity assay, recombinant human SK2 (ADP-Quest; HPLC assay for SKI-II); format: biochemical; settings: for Ki: recombinant human SK2, mean ± SEM of three independent experiments; for Ki / IC50: ADP-Quest (SKI-II: HPLC assay); for IC50: sphingosine 5 µM, read-out: IC50 for inhibition of SK2; for mode of inhibition of SK2: substrate competition, Lineweaver-Burk plots
T2 construct: purchased BPS Biosciences
T2 sequence (Q9NRA0 1-654): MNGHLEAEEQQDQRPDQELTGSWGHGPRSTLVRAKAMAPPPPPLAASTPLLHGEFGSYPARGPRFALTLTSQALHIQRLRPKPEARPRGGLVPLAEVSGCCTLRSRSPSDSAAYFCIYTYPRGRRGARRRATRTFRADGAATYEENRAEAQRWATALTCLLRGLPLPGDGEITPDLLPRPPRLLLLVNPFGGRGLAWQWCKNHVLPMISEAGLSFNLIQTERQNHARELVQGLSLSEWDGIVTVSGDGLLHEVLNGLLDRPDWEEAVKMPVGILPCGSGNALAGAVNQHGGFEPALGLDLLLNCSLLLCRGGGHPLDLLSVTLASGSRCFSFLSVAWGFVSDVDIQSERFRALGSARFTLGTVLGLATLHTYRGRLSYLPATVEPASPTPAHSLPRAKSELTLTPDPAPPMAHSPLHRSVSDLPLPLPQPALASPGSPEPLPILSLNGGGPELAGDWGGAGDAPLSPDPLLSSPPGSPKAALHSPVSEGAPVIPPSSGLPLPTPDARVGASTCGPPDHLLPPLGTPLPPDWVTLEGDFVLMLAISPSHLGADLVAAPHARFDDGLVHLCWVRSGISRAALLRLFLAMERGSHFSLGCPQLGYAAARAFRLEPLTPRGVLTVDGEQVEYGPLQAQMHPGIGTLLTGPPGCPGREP
Procedure: as §3

[1] = system: A498 kidney adenocarcinoma cells; assay: Proliferation / cytotoxicity, sulforhodamine assay; format: cell-based; settings: Homo sapiens, A498, 48 h, read-out: IC50, concentration that reduces cell number by 50%
Procedure: (§4) To assess proliferation, cells were treated with the SK inhibitors for the indicated times, and cell numbers were quantified using the sulforhodamine assay [38]. […] For migration assays, 50,000 cells were placed in each cell culture insert (24-well format, 8 µm pore size, BD Biosciences) for 1 hr at room temperature. For invasion assays, matrigel pre-coated inserts were used as previously described [17]. In both cases, inserts were placed into 24-well plates with 0.3 ml of 10%-serum-containing medium having the same concentration of the inhibitor as the insert. Cells were cultured for 4 hr for migration or 24 hr for invasion assays, and the number of cells that migrated to the underside of the inserts was determined by crystal violet staining as previously described [17].
(§5) A ) Cytotoxicity - After treatment with varying concentrations of the SK inhibitors for the indicated time periods, cell numbers were quantified. […] E ) Cell migration and invasion – After SK inhibitor treatment, cells were harvested and migration, through unmodified filters (open bars) and invasion through Matrigel-coated filters (filled bars), were analyzed. […] Data are the mean ± SEM of three independent experiments. *p<0.05, **p<0.01, ***p<0.001 versus control.

SK1 mRNA = SK1 mRNA expression by quantitative PCR in A498 cells; format: cell-based; settings: inhibitor at its IC50, 48 hr
Procedure: (§1) To assess proliferation, cells were treated with the SK inhibitors for the indicated times, and cell numbers were quantified using the sulforhodamine assay. Expression levels of SK1 and SK2 were measured by quantitative PCR using GAPDH for normalization, as previously described. […] The cell pellets were subjected to sphingolipid profiling by HPLC-MS by the Lipidomics Core Facility at MUSC as described elsewhere. […] For migration assays, 50,000 cells were placed in each cell culture insert (24-well format, 8 µm pore size, BD Biosciences) for 1 hr at room temperature. For invasion assays, matrigel pre-coated inserts were used as previously described. In both cases, inserts were placed into 24-well plates with 0.3 ml of 10%-serum-containing medium having the same concentration of the inhibitor as the insert. Cells were cultured for 4 hr for migration or 24 hr for invasion assays, and the number of cells that migrated to the underside of the inserts was determined by crystal violet staining as previously described.
(§2) Figure 5 Biochemical and phenotypic effects of SK inhibitors. A ) Cytotoxicity - After treatment with varying concentrations of the SK inhibitors for the indicated time periods, cell numbers were quantified. […] B ) SK expression - After SK inhibitor treatment, mRNAs for SK1 (open bars) and SK2 (filled bars) compared to the vehicle controls (DMSO-treated cells) were calculated. C ) Sphingolipid profiling – After SK inhibitor treatment, cells were harvested and sphingolipids were analyzed by mass spectrometric. The bars represent the ratio of the amount of the indicated lipids in drug treated cells compared with control cells. Abbreviations are: C26-ceramide (C26-Cer), C24-ceramide (C24-Cer), C20-ceramide (C20-Cer), C18-ceramide (C18-Cer), C16-ceramide (C16-Cer), sphingosine (Sph) and dihydrosphingosine (dhSph). D ) Cell cycle distribution – After SK inhibitor treatment, cells were harvested and analyzed by flow cytometry. The bars indicate the percentage of cells in each of the indicated cell cycle phases. E ) Cell migration and invasion – After SK inhibitor treatment, cells were harvested and migration, through unmodified filters (open bars) and invasion through Matrigel-coated filters (filled bars), were analyzed. The bars indicate the percentage of cells that had migrated compared to control cells. Data are the mean ± SEM of three independent experiments. *p<0.05, **p<0.01, ***p<0.001 versus control.

SK2 mRNA = SK2 mRNA expression by quantitative PCR in A498 cells; format: cell-based; settings: inhibitor at its IC50, 48 hr
Procedure: as §1, §2

[2] = system: A498 kidney adenocarcinoma cells; assay: Sphingolipid profiling by HPLC-MS in A498 cells; format: cell-based; settings: inhibitor at its IC50, 48 hr
Procedure: as §1, §2

[3] = system: A498 kidney adenocarcinoma cells; assay: Cell cycle distribution by flow cytometry; format: cell-based; settings: inhibitor at its IC50, 48 hr
Procedure: as §2

[4] = system: A498 kidney adenocarcinoma cells; assay: Serum-induced migration and invasion (Matrigel) assays; format: cell-based; settings: inhibitor at its IC50, 48 hr pretreatment, compared with SK1-selective CB5468139
Procedure: as §4, §5

[5] = system: STAT3, AKT, ERK, p21, p53, FAK, Beclin1, LC3 in A498 cells; assay: Western blot of signaling proteins in A498 cells; format: cell-based; settings: inhibitor at its IC50, 48 hours
Procedure: Following treatment with the SK inhibitors, cells were washed, harvested and lysed, and supernatants were prepared and protein concentrations were determined as previously described. Immunoblotting was carried out with the following primary antibodies (Cell Signaling): AKT, pAKT, ERK1/2, pERK1/2, STAT3, pSTAT3, p21, p53, FAK, pFAK(Y397), Beclin1, LC3, β-actin; and corresponding HRP-conjugated anti-rabbit or anti-mouse secondary antibodies, and immunocomplexes were visualized by the chemiluminescence. Protein expression was quantified by densitometric scanning of the BIOMAX XAR films after normalization to β-actin using the program NIH ImageJ.
Figure 6 Effects of SK inhibitors on signaling proteins. […] Figures are representative blots of at least three independent experiments. B ) Immunoblotting was conducted with the indicated antibodies, and densitometric quantification was done using Image J. Relative expression is represented as the ratio to control after normalization to β-actin.

[6] = system: panel of 65 protein kinases; assay: Kinase profiling, KinaseSeeker assay; settings: 2 µM compound; 65 protein kinases tested
Procedure: The inhibitory effects of CB5468139 (2 µM) on the indicated protein kinases were tested using KinaseSeeker assay technology (Luceome Biotech. LLC).

[7] = 100 µM ATP, sphingosine 1.25 to 20 µM, initial velocity conditions

T1 sequence (Q9NYA1 whole entry): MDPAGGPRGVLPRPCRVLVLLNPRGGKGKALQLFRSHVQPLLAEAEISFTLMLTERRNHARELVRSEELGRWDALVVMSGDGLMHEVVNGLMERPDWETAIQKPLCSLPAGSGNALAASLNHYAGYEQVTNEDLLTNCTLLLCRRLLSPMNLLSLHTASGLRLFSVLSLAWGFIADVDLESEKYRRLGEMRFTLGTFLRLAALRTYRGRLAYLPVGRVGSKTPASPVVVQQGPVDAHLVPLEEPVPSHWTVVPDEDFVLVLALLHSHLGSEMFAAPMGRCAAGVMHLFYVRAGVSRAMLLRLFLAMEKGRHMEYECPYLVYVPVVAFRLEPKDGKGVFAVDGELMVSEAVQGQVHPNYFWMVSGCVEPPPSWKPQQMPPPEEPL

Row | Compound | IC50 (recombinant human SK1) [µM] | IC50 (recombinant human SK2) [µM] | mode of inhibition of SK2 (recombinant human SK2) | mode of inhibition of SK1 (recombinant human SK1) | Ki (recombinant human SK2) [µM] | IC50 [1] [µM] | SK1 mRNA level compared to vehicle control (SK1 mRNA) | SK2 mRNA level compared to vehicle control (SK2 mRNA) | decrease of intracellular S1P compared to control [2] | effect on cell cycle distribution [3] | pFAK(Y397) / FAK [5] | protein levels of p53 and p21 [5] | further results
1 | CC(=O)N(C1=C(Cl)C(=O)c2ccccc2C1=O)C1CCCCC1 [CB5468139] | ~2 | > 100 | – | ATP mimetic | – | 10 | Neither ABC294735 nor CB5468139 substantially altered the expression | Neither ABC294735 nor CB5468139 substantially altered the expression | less than 20% | slightly increase the S phase percentage | strongly down-regulated | reduced the expression of p53, but not p21 | Ki (recombinant human SK1): 0.28 ± 0.15 µM; increase of total ceramide levels [2]: 30–60%; protein kinases with ≥50% inhibition [6]: 12 of 65
2 | CCCCCCCCCCCCC/C=C/[C@@H](O)[C@H](CO)N(C)C [DMS, N,N-dimethyl-D-erythro-sphingosine, reference compound] | – | ~20 | competitive inhibition with respect to sphingosine | competitive inhibition with respect to sphingosine | 14 | 5 | tripled | only slightly increased | – | did not impact the cell cycle | not altered | essentially no affect | effect on levels of ceramides [2]: little impact on the levels of most ceramides; cells driven into apoptosis [3]: approximately 20%
3 | Oc1ccc(Nc2nc(-c3ccc(Cl)cc3)cs2)cc1 [SKI-II, 2-(p-hydroxyanilino)-4-(p-chlorophenyl) thiazole, reference compound] | – | 20 | – | – | 7.9 ± 0.6 | 20 | ~4 fold | ~4 fold | over 90% | arrested cells in S phase with a concomitant decrease in the G2/M phase | strongly down-regulated | decreased the protein levels of p53 and p21 | increase of total ceramide levels [2]: 30–60%; levels of sphingosine [2]: dramatically decreased; serum-induced migration and invasion [4]: more strongly attenuated; ERK2 expression [5]: decreases of ERK2
4 | CCCCCCCCCCCCC/C=C/[C@@H](O)[C@@H](N)CO [sphingosine] | – | – | – | – | – | – | – | – | – | – | – | – | Km (recombinant human SK1; [7]): 10 ± 0.45 µM; Km (recombinant human SK2; [7]): 5 ± 0.36 µM
5 | diacylglycerol [DAG] | > 100 | > 100 | – | – | – | – | – | – | – | – | – | – | –

Continued, in another order:

Row | IC50 (recombinant human SK1) [µM] | IC50 (recombinant human SK2) [µM] | mode of inhibition of SK2 (recombinant human SK2) | mode of inhibition of SK1 (recombinant human SK1) | Compound | Ki (recombinant human SK2) [µM] | IC50 [1] [µM] | SK1 mRNA level compared to vehicle control (SK1 mRNA) | SK2 mRNA level compared to vehicle control (SK2 mRNA) | decrease of intracellular S1P compared to control [2] | effect on cell cycle distribution [3] | pFAK(Y397) / FAK [5] | protein levels of p53 and p21 [5] | further results
6 | > 100 | ~40 | sphingosine-competitive inhibitor | – | O=C(NCc1ccncc1)C12CC3CC(C1)CC(c1ccc(Cl)cc1)(C3)C2 [ABC294640] | 9.3 | 40 | approximately 5 fold | strongly increased | over 90% | distinct G1 arrest with significant decreases in both S and G2/M phases | strongly down-regulated | decreased the protein levels of p53 and p21 | levels of sphingosine [2]: dramatically decreased; total ceramides relative to control cells [2]: 2 times the level of control cells; serum-induced migration and invasion [4]: more strongly attenuated; ERK2 expression [5]: decreases of ERK2; STAT3 expression and activation (pSTAT3) [5]: largest decrease; expression of autophagy markers beclin1 and LC3 [5]: most pronounced increases; pAKT level [5]: decreased dramatically
7 | ~10 | ~10 | sphingosine-competitive inhibitor | sphingosine-competitive inhibitor | O=C(NCCc1ccc(O)c(O)c1)C12CC3CC(C1)CC(c1ccc(Cl)cc1)(C3)C2 [ABC294735] | 4.2 ± 0.6 | 35 | Neither ABC294735 nor CB5468139 substantially altered the expression | Neither ABC294735 nor CB5468139 substantially altered the expression | – | slightly increase the S phase percentage | – | – | Ki (recombinant human SK1): 3.1 ± 0.8 µM
